From US8105835B2, “Method for micropropagation of monocots based on sustained totipotent cell cultures” (The University of South Carolina, priority 2007, dated 2012)

Experiments:
[1] = system: Arundo donax explants (cross-sectional segments of immature inflorescence); assay: Phosphinothricin selection of explants on primary solid culture medium; type: cell-based; conditions: 10 mg/L, four weeks selection, FIG. 6A
Procedure: Agrobacterium tumefaciens carrying the plasmid, pMSF3022, was used to transform Arundo donax explants (cross-sectional segments of immature inflorescence). Plasmid pMSF3022 carries the bar gene that confers resistance to phosphinothricin and provides a positive selection and the gfp (green fluorescent protein) gene which provides a visual selection of transformants. Antibiotic resistant transformants were selected for four weeks after gene transfer by incubating the explants on primary solid culture medium with or without phosphinothricin and containing ticarcillin at […] concentration to eliminate residual Agrobacterium. As shown in FIG. 6A control explants (untransformed) were killed by 10 mg/L of phosphinothricin (antibiotic/herbicide). In the absence of the antibiotic/herbicide, the control explants develop embryogenic callus (FIG. 6B). In contrast, the explants that were cocultivated with the A. tumefaciens carrying the plasmid, pMSF3022 (transformed), were able to develop embryogenic callus in the presence of 10 mg/L of phosphinothricin (FIG. 6C).

[2] = system: monocot embryogenic cell culture; assay: Transfer of culture from auxin plus cytokinin medium to medium with cytokinin only; type: cell-based; conditions: medium without auxin but maintaining the cytokinin
Procedure: As known to those of skill in the art, cytokinins, both natural and synthetic, are used to induce shoot formation while inhibiting root formation (Trigiano and Gray, Plant tissue culture concepts and laboratory exercises. Second ed., Boca Raton: CRC Press (2000)).
In one embodiment, the tertiary medium is prepared by adding to sterile water (a) the cytokinin, thidiazuron; (b) sucrose, 30 g/l; (c) Miller's salt solution (6% w/v, KH2 PO4), about 3 ml; and (d) MS salts, 4.3 g/l. In one embodiment the concentration of the thidiazuron is from about 0.01 mg/l to about 1 mg/l. In another embodiment, the concentration of the thidiazuron is about 0.02 mg/l.

CP(=O)(O)CC[C@H](N)C(=O)O [phosphinothricin]
effect on control (untransformed) explants [1]: killed

O=C(Nc1ccccc1)Nc1cnns1 [thidiazuron]
effect on shoot elongation and root formation [2]: not only was shoot elongation promoted but unexpectedly root formation also resulted
